Measured values reported in patent US9499502B2, “5-substituted iminothiazines and their mono- and dioxides as BACE inhibitors, compositions, and their use” (Merck Sharp & Dohme Corp., priority 2011, dated 2016).

Experiments:
[1] = molecular target: soluble human BACE1 catalytic domain (Homo sapiens (Human), UniProt P56817); assay: BACE1 HTRF FRET Assay; conditions: read-out: BACE1 Ki; Ki calculated from IC50 using the Cheng-Prusoff equation
[2] = molecular target: purified human autoBACE-2 (Homo sapiens (Human), UniProt Q9Y5Z0); assay: BACE-2 Assay (BACE-HTRF assay); type: biochemical; conditions: Ki calculated from IC50 using the Cheng-Prusoff equation; read-out: BACE2 Ki
Experimental: Inhibitor IC50s at purified human autoBACE-2 are determined in a time-resolved endpoint proteolysis assay that measures hydrolysis of the QSY7-[…]-Eu-amide FRET peptide substrate (BACE-HTRF assay). […] DMSO is present at 5% final concentration in the assay. Following laser excitation of sample wells at 320 nm, the fluorescence signal at 620 nm is collected for 400 ms following a 50 μs delay on a RUBYstar HTRF plate reader (BMG Labtechnologies). Raw RFU data is normalized to maximum (1.0 nM BACE/DMSO) and minimum (no enzyme/DMSO) RFU values. […] The Ki values are calculated from the IC50 using the Cheng-Prusoff equation.

Sequence of purified human autoBACE-2 (Q9Y5Z0 63-473): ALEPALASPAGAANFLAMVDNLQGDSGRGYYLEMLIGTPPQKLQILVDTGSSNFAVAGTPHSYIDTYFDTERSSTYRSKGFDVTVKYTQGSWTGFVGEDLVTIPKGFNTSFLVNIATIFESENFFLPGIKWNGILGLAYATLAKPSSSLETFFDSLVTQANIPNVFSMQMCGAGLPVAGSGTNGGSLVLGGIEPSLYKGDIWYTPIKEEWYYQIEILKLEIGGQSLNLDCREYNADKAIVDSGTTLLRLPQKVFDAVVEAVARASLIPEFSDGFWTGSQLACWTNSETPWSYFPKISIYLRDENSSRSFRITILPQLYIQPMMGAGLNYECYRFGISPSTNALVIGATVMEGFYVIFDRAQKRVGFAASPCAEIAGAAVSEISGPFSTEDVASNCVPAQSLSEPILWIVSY
Sequence of soluble human BACE1 catalytic domain (P56817 75-416): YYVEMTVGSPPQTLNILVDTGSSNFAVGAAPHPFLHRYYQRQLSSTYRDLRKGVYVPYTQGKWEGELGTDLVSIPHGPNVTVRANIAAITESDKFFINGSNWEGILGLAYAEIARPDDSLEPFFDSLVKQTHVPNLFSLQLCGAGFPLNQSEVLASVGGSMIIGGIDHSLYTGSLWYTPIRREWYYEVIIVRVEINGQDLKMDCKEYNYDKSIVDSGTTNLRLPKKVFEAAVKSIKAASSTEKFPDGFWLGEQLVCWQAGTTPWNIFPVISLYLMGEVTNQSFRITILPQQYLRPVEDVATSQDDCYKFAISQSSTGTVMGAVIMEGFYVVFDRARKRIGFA

Ki [1] [nM]	Ki [2] [nM]	Compound
25	11	CC1(C)C(=N)N[C@](C)(c2cc(NC(=O)c3ccc(C(F)(F)F)cn3)cc(F)c2F)CS1(=O)=O [Example 9bf]
6	3	CC1(C)C(=N)N[C@](C)(c2cc(NC(=O)c3ccc(C#N)cn3)cc(F)c2F)CS1(=O)=O [Example 9bg]
13	4	Cc1ccc(C(=O)Nc2cc(F)c(F)c([C@]3(C)CS(=O)(=O)C(C)(C)C(=N)N3)c2)nc1 [Example 9bh]
69	22	Cc1cnc(C(=O)Nc2cc(F)c(F)c([C@]3(C)CS(=O)(=O)C(C)(C)C(=N)N3)c2)cn1 [Example 9bo]
718	2900	COc1cnc(C(=O)Nc2cc([C@]3(C)CS(=O)(=O)C(C)(C)C(=N)N3)c(F)cc2Br)cn1 [Example 9by]
13.7	≤ 10	CC1(C)C(=N)N[C@](C)(c2nc(NC(=O)c3ccc(Cl)cn3)ccc2F)CS1(=O)=O [Example 9cc]
25.7	40	CC1(C)C(=N)N[C@](C)(c2nc(NC(=O)c3ccc(C(F)(F)F)cn3)ccc2F)CS1(=O)=O [Example 9cf]
94.2	85	COc1cnc(C(=O)Nc2ccc(F)c([C@]3(C)CS(=O)(=O)C(C)(C)C(=N)N3)n2)cn1 [Example 9cg]
219	44	COc1ccc(C(=O)Nc2ccc(F)c([C@]3(C)CS(=O)(=O)C(C)(C)C(=N)N3)n2)nn1 [Example 9ci]
21.7	≤ 10	CC1(C)C(=N)N[C@](C)(c2nc(NC(=O)c3cnc(Br)cn3)ccc2F)CS1(=O)=O [Example 9ck]
96.7	11 to 100	COc1cnc(C(=O)Nc2ccc(F)c([C@]3(C)CS(=O)(=O)[C@](C)(C4CC4)C(=N)N3)c2)cn1 [Example 9cq-b]

The remaining lines, values behind:

Compound	Ki [1] [nM]	Ki [2] [nM]
CC(F)(F)C(=O)Nc1ccc(F)c([C@]2(C)CS(=O)(=O)C(C)(C)C(=N)N2)c1 [Example 9ai]	82	18
COCC(=O)Nc1ccc(F)c([C@]2(C)CS(=O)(=O)C(C)(C)C(=N)N2)c1 [Example 9at]	60	14
CC1(C)C(=N)N[C@](C)(c2cc(NC(=O)C3CCC3(F)F)ccc2F)CS1(=O)=O (some centres unmarked) [Example 9aw]	299	47
CC1(C)C(=N)N[C@](C)(c2cc(NC(=O)c3ccno3)ccc2F)CS1(=O)=O [Example 9ax]	82	22
CC1(C)C(=N)N[C@](C)(c2cc(NC(=O)c3ncc(F)cc3F)cc(F)c2F)CS1(=O)=O [Example 9ba]	21	1
CC1(C)C(=N)N[C@](C)(c2cc(NC(=O)C(F)F)cc(F)c2F)CS1(=O)=O [Example 9bd]	233	40
CC1(C)C(=N)N[C@](C)(c2cc(NC(=O)c3ccc(Cl)cc3)cc(F)c2F)CS1(=O)=O [Example 9bi]	22	9
COCC(=O)Nc1cc(F)c(F)c([C@]2(C)CS(=O)(=O)C(C)(C)C(=N)N2)c1 [Example 9bk]	112	12
CC(F)(F)C(=O)Nc1cc(F)c(F)c([C@]2(C)CS(=O)(=O)C(C)(C)C(=N)N2)c1 [Example 9bl]	79	40
CC1(C)C(=N)N[C@](C)(c2cc(NC(=O)c3cocn3)cc(F)c2F)CS1(=O)=O [Example 9bu]	42	5
CCC1C(=N)N[C@](C)(c2cc(NC(=O)c3ccc(F)cn3)ccc2F)CS1(=O)=O (some centres unmarked) [Example 9ca]	33	9
COc1cccc2cc(C(=O)Nc3ccc(F)c([C@]4(C)CS(=O)(=O)[C@@](C)(CC5CCOCC5)C(=N)N4)c3)[nH]c12 [Example 9cu-a]	46.7	11 to 100
C[C@@]1(c2ccccn2)C(=N)N[C@](C)(c2cc(NC(=O)c3ccc(F)cn3)ccc2F)CS1(=O)=O [Example 9cv-b]	187	11 to 100
C[C@@]1(c2ccccn2)C(=N)N[C@](C)(c2cc(NC(=O)c3ccc(Cl)cn3)ccc2F)CS1(=O)=O [Example 9cw-b]	72.7	11 to 100
